Columns and labels:
GI transit = assay: Validated rat gastrointestinal (GI) motility study; settings: oral, equimolar dose, result in words
[1] = Tamper resistance study: extraction methods, hydromorphone release by HPLC; settings: for amount of hydromorphone released from 3,6-di-aspirin-HM: %-AUC by HPLC
Source text: Certain prodrug conjugates of the present technology were exposed to various commonly applied “extraction methods” to test for hydrolysis and/or decomposition of the prodrug.

[2] = Intranasal pharmacokinetic study in rats; settings: rat, equimolar to 2.0 mg/kg hydromorphone
Experimental: The intranasal studies were performed at doses equimolar to 2.0 mg/kg of hydromorphone.

[3] = Intravenous pharmacokinetic study in rats; settings: rat, 0.20 mg/kg
[4] = Oral pharmacokinetic study in rats (released hydromorphone in plasma); settings: rat; for AUC of hydromorphone released from the conjugate / Cmax of hydromorphone released from the conjugate / Tmax of hydromorphone released from the conjugate: oral solution, dose equimolar to 2.0 mg/kg hydromorphone, plasma
[5] = oral, equimolar to 2.0 mg/kg hydromorphone, result in words

For `CC(=O)Oc1ccccc1C(=O)OC1=CC[C@H]2[C@H]3Cc4ccc(OC(=O)c5ccccc5OC(C)=O)c5c4[C@@]2(CCN3C)[C@H]1O5` [3,6-di-Aspirin-HM, 3,6-di-aspirin-hydromorphone], the “reduction of GI transit compared to hydromorphone hydrochloride” value (GI transit) was “reduces GI transit to a lesser extent than hydromorphone hydrochloride”, the “amount of hydromorphone released from 3,6-di-aspirin-HM” value (shortened to “amount of hydromorphone released”) ([1]; 1N HCl, ambient temperature, 30 min.) was 0% and the “amount of hydromorphone released” value ([1]; 1N HCl, ambient temperature, 60 min.) was 0%. For the same molecule, the “amount of hydromorphone released” value ([1]; 1N NaOH, ambient temperature, 30 min.) was 1%, the “amount of hydromorphone released” value ([1]; 1N NaOH, ambient temperature, 60 min.) was 1% and the “amount of hydromorphone released” value ([1]; 4N NaOH, ambient temperature, 30 min.) was 1%. The “amount of hydromorphone released” value ([1]; 4N NaOH, ambient temperature, 60 min.) was 6%, the “amount of hydromorphone released” value ([1]; 5% Acetic acid, ambient temperature, 30 min.) was 0% and the “amount of hydromorphone released” value ([1]; 5% Acetic acid, ambient temperature, 60 min.) was 0%. The “amount of hydromorphone released” value ([1]; Glacial acetic acid, ambient temperature, 30 min.) was 0%, the “amount of hydromorphone released” value ([1]; Glacial acetic acid, ambient temperature, 60 min.) was 0% and the “amount of hydromorphone released” value ([1]; Sat. NaHCO3, ambient temperature, 30 min.) was 0%. The “amount of hydromorphone released” value ([1]; Sat. NaHCO3, ambient temperature, 60 min.) was 0%, the “amount of hydromorphone released” value ([1]; Water, ambient temperature, 30 min.) was 0% and the “amount of hydromorphone released” value ([1]; Water, ambient temperature, 60 min.) was 0%. The “chemical stability under commonly applied "extraction methods"” value ([1]; result in words) was “chemically stable”, the “outcome of solvent extraction from formulation” value ([1]; result in words) was “only yielded inactive prodrug” and the “AUC as % of unconjugated hydromorphone” value [2] was 17%. For the same molecule, the “Cmax as % of unconjugated hydromorphone” value [2] was 20%, the “plasma concentrations of hydromorphone after intranasal administration compared to the parent drug” value ([2]; result in words) was “significantly reduced” and the “AUC as % of unconjugated hydromorphone” value [3] was 6%. The “Cmax as % of unconjugated hydromorphone” value [3] was 3%, the “plasma concentrations of hydromorphone after intravenous administration compared to unconjugated hydromorphone” value ([3]; result in words) was “significantly lower” and the “AUC of hydromorphone released from the conjugate” value (“AUC of hydromorphone released” below) [4] was 82.4 ng·h/mL. For the same molecule, the “Cmax of hydromorphone released from the conjugate” value (shortened to “Cmax of hydromorphone released”) [4] was 36.5 ng/mL, the “Tmax of hydromorphone released from the conjugate” value (from here on “Tmax of hydromorphone released”) [4] was 15 min and the “hydromorphone plasma concentrations compared to unconjugated hydromorphone” value [4, 5] was “comparable”.

With `CN1CC[C@]23c4c5ccc(OC(=O)c6ccccc6Nc6ccccc6)c4OC2C(=O)CC[C@H]3[C@H]1C5` (stereo partly drawn) [3-Fenamate-HM, 3-fenamate-hydromorphone] the “AUC of hydromorphone released” value [4] was 44.6 ng·h/mL, the “Cmax of hydromorphone released” value [4] was 30.6 ng/mL and the “Tmax of hydromorphone released” value [4] was 15 min. For the same molecule, the “hydromorphone plasma concentrations compared to unconjugated hydromorphone” value [4, 5] was “elevated for the first hour after oral administration and then decreased quickly”.

With `CN1CCC23c4c5ccc(OC(=O)c6ccccc6)c4OC2C(OC(=O)c2ccccc2)=CCC3C1C5` (stereo not drawn) [3,6-di-Benzoate-HM, 3,6-di-benzoate-hydromorphone] the “AUC of hydromorphone released” value [4] was 30.1 ng·h/mL, the “Cmax of hydromorphone released” value [4] was 11.3 ng/mL and the “Tmax of hydromorphone released” value [4] was 15 min. The “hydromorphone plasma concentrations compared to unconjugated hydromorphone” value [4, 5] was “lower at all time points”.

In the case of `CN1CCC23c4c5ccc(OC(=O)c6ccccc6)c4OC2C(=O)CCC3C1C5` (stereo not drawn) [3-Benzoate-HM, 3-benzoate-hydromorphone], the “AUC of hydromorphone released” value [4] is reported as 41.2 ng·h/mL, the “Cmax of hydromorphone released” value [4] is reported as 19.8 ng/mL and the “Tmax of hydromorphone released” value [4] is reported as 30 min. For the same molecule, the “hydromorphone plasma concentrations compared to unconjugated hydromorphone” value [4, 5] was “lower at all time points”.

For `CN1CCC23c4c5ccc(OC(=O)C=Cc6ccccc6)c4OC2C(=O)CCC3C1C5` (stereo not drawn) [3-Cinnamate-HM, 3-cinnamate-hydromorphone], the “AUC of hydromorphone released” value [4] was 25.3 ng·h/mL, the “Cmax of hydromorphone released” value [4] was 28.3 ng/mL and the “Tmax of hydromorphone released” value [4] was 15 min. The “hydromorphone plasma concentrations compared to unconjugated hydromorphone” value [4, 5] was “lower at all time points”.

With `CC(=O)Oc1ccccc1C(=O)Oc1ccc2c3c1OC1C(=O)CCC4C(C2)N(C)CCC314` (stereo not drawn) [Conjugate 3-Aspirin-HM, 3-aspirin-hydromorphone] the “AUC of hydromorphone released” value [4] was 55.9 ng·h/mL, the “Cmax of hydromorphone released” value [4] was 44.3 ng/mL and the “Tmax of hydromorphone released” value [4] was 15 min. The “hydromorphone plasma concentrations compared to unconjugated hydromorphone” value [4, 5] was “comparable”.

For `COc1ccc2cc(C(C)C(=O)OC3=CCC4C5Cc6ccc(O)c7c6C4(CCN5C)C3O7)ccc2c1` (stereo not drawn) [6-Naproxen-HM, 6-naproxen-hydromorphone], the “AUC of hydromorphone released” value [4] was 31.6 ng·h/mL, the “Cmax of hydromorphone released” value [4] was 19.1 ng/mL and the “Tmax of hydromorphone released” value [4] was 15 min. For the same molecule, the “overall exposure after oral administration compared to the parent drug” value [4, 5] was “reduced significantly”.

In the case of `CN1CCC23c4c5ccc(OC(=O)c6ccncc6)c4OC2C(=O)CCC3C1C5` (stereo not drawn) [3-Isoniacin-HM, 3-isoniacin-hydromorphone], the “AUC of hydromorphone released” value [4] is reported as 25.1 ng·h/mL, the “Cmax of hydromorphone released” value [4] is reported as 18.5 ng/mL and the “Tmax of hydromorphone released” value [4] is reported as 15 min. The “Cmax value of released hydromorphone compared to unconjugated hydromorphone” value [4, 5] was “lower”.

With `CN1CCC23c4c5ccc(OC(=O)c6ccc(O)cc6)c4OC2C(=O)CCC3C1C5` (stereo not drawn) [3-p-Salicylic-HM, 3-p-salicylic-hydromorphone] the “AUC of hydromorphone released” value [4] was 31.4 ng·h/mL, the “Cmax of hydromorphone released” value [4] was 17.2 ng/mL and the “Tmax of hydromorphone released” value [4] was 15 min. The “hydromorphone plasma concentrations compared to unconjugated hydromorphone” value [4, 5] was “lower at all time points”.

For `CN1CCC23c4c5ccc(O)c4OC2C(OC(=O)c2ccccc2O)=CCC3C1C5` (stereo not drawn) [6-o-Salicylate-HM, 6-o-salicylate-hydromorphone], the “AUC of hydromorphone released” value [4] was 33.3 ng·h/mL, the “Cmax of hydromorphone released” value [4] was 14.1 ng/mL and the “Tmax of hydromorphone released” value [4] was 15 min. For the same molecule, the “Cmax value of released hydromorphone compared to unconjugated hydromorphone” value [4, 5] was “lower”.
